Entries after “also recorded” stand apart in the source; their conditions may differ.
Key:
G2A receptor (GPR132) [1] = molecular target: T1, G2A receptor (GPR132) (Homo sapiens, UniProt Q9UNW8); assay: Calcium in HEK cells transfected with G2A (FURA-2); assay type: cell-based; parameters: expressed in transfected cells; details: HEK cells overexpressing G2A, 9-HODE 1 μM
T1 sequence (Q9UNW8 1-380): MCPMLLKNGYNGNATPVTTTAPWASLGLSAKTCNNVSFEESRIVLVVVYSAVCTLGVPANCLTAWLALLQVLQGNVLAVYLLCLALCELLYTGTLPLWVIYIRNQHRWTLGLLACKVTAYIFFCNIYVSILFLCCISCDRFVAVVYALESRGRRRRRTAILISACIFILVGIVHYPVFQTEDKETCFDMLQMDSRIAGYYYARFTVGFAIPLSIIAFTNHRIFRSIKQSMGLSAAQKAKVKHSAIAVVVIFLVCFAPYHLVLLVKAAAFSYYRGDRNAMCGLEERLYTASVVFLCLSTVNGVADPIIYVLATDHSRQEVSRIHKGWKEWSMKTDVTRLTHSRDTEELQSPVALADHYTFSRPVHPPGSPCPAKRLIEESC

TRPV1 [2] = assay: Whole-cell voltage clamp of DRG neurons, capsaicin-induced inward current; assay type: cell-based, mice; details: DRG neurons pre-treated with 9-HODE (200 nM, 3 min), capsaicin 1 μM
Method: All recordings were carried out at room temperature within 48 hour of plating DRG neurons. Whole-cell voltage clamp recordings were made with an Axopatch 200A amplifier (Molecular Devices) and patch pipettes with resistances of 2-3 MΩ. Pipette solution was 5 mM NaCl, 140 mM KCl, 0.5 mM CaCl2, 2 mM MgCl2, 5 mM EGTA, 10 mM HEPES, and 3 mM Na2ATP, pH 7.2, adjusted with NaOH. The external solution was 140 mM NaCl, 5 mM KCl, 2 mM CaCl2, 2 mM MgCl2, 10 mM HEPES, and 10 mM D-glucose, pH 7.4, adjusted with NaOH (Sigma). Command protocols were generated and data was digitized with a Digidata 1440A A/D interface with pCLAMP10 software. We used gravity perfusion system connected with perfusion pencil (AutoMate Scientific) to externally apply 9-HODE or capsaicin to the cells.

TRPV1 [3] = assay: Calcium imaging of DRG neurons: TRPV1 sensitization (two capsaicin stimuli, Δratio); assay type: cell-based, mice
Method: DRG primary cultures were prepared as described previously (Brenneis et al., 2011 b). Briefly, twenty to thirty murine dorsal roots ganglia (DRGs) were dissected from spinal segments and transferred directly into ice-cold Hanks' balanced salt solution with CaCI2 and MgCI2 (lnvitrogen, Carlsbad, Calif., USA). The DRGs were than incubated with Neurobasal Medium (lnvitrogen, Carlsbad, Calif., USA) containing 500 U/ml collagenase (Sigma, Deisenhofen, Germany) and 2.5 U/ml dispase II (Roche, Mannheim, Germany) for 75 mins at 37° C. After removal of the collagenase/dispase-solution cells were washed three times with medium containing 10% FCS, penicillin/streptomycin/gentamycin (lnvitrogen, Carlsbad, Calif., USA) and incubated in 0.05% trypsin for 10 min at 37° C. After two washing steps, the cells were mechanically dissociated with a 1 ml pipette and plated on Poly-L-lysine (Sigma) coated coverslips. After incubation at 37° C. for 2 h, Neurobasal Medium containing glutamine (2 mm), penicillin (100 U/ml), streptomycin (100 μg/ml), B-27 and gentamicin (50 μg/ml) was added to the cells and incubated overnight. The neurons were used for Calcium imaging the next day.
Calcium-imaging experiments were performed with a Leica calcium-imaging setup, consisting of a Leica DMI 4000 b inverted microscope equipped with a DFC360 FX (CCD) camera, Fura-2 filters, and an N-Plan 10×/0.25 Ph1 objective (all from Leica), was used. Images were taken every 2 s and were processed with the LAS AF-software (Leica). For each experiment, an area with large cell numbers 24 h after preparation (see DRG primary cultures) was chosen and 40-110 cells were monitored simultaneously. Cells were loaded with 5 μM fura-2-AM-ester (Biotium), incubated for 45-60 min at 37° C. and washed with ringer solution (145 mM NaCI, 1.25 mM CaCl2, 1 mM MgCl2, 5 mM KCI, 10 mM D-glucose, and 10 mM HEPES, adjusted to pH 7.3). Baseline measurements were performed with ringer solution at a flow rate of 1-2 ml/min at room temperature. For the activation of TRPV1 we used a solution of 200 nM capsaicin (Sigma), for TRPA1 activation 50 μM allyl isothiocyanate (AITC, Fluka Analytic) and for TRPM8 100 μM L-menthol (Sigma) dissolved in ringer solution. For TRP-channel sensitization, cells were incubated for 2 mins with different concentrations (50 nM-1000 nM) of (±) 9-HODE (Cayman) or (±) 13-HODE (Cayman) before the second stimulus took place. For control stimulations, the corresponding volume of DMSO (Sigma) was mixed in ringer solution and applied with the same flow rate. 10 μM of the PKA inhibitor H89 (Tocris) or 1 μM of the PKC inhibitor GF1 09203X (Tocris) was co-incubated with fura-2 for 45 mins. As positive control for PKA activation 40 iJM 8-bromo-cAMP (Cayman) and for PKC activation 500 nM bradykinin (Cayman) was used. At the end of each measurement, 50 mM KCl was applied to identify neurons.

G2A receptor (GPR132) [4] = molecular target: T1, G2A receptor (GPR132); assay: Calcium flux in COS-1 cells cotransfected with aequorin and G2A; assay type: cell-based; parameters: expressed in transfected cells; details: COS-1 cells transfected with GPR132 and aequorin, 10 nM-10 μM
Method: For studies of heterologously expressed G2A receptor, COS-1 cells were seeded in white walls-clear bottom 96-well plates and transfected with a plasmid encoding a calcium-sensitive bioluminescent fusion protein between aequorin and GFP (Baubet et al., 2000) together with plasmid containing cDNA for G2A or control DNA (empty vector, mock) at a concentration of 50 ng/well by using FuGENE 6 reagent (Promega) following manufacturer's instructions. Forty eight hours later, cells were loaded with 5 μM coelenterazine h (Invitrogen) in HBSS containing 1.8 mM CaCl2 and 10 mM glucose for 2 h at 37° C. Measurements were performed by using a luminometric plate reader (Flexstation 3). The area under each calcium transient was calculated by using SoftMaxPro software and expressed as area under the curve (AUC).

G2A receptor (GPR132) [5] = molecular target: T1, G2A receptor (GPR132); details: heterologous expression system; cited from earlier work

## CCCCC/C=C\C=C\C(O)CCCCCCCC(=O)O (stereo not shown) [9-HODE, 9-hydroxy-10E,12Z-octadecadienoic acid]
G2A receptor (GPR132) [1]
  intracellular calcium concentrations: caused calcium-release; also recorded: increased intracellular calcium concentrations
TRPV1 [2]
  capsaicin-induced inward current: significantly increased
TRPV1 [3]; DRG cultures of G2A-deficient mice, 9-HODE 200 nM 120 s
  9-HODE-induced TRPV1 sensitization in G2A-deficient DRG neurons: not in G2A-deficient mice; also recorded: absent
TRPV1 [3]; DRG neurons, lipid incubated 2 minutes before second capsaicin stimulus, 0 to 1000 nM
  sensitization of TRPV1 (Δratio of first and second capsaicin stimulus): dose-dependently sensitizes the TRPV1 channel; also recorded: concentration-dependently induced a sensitization of TRPV1
TRPV1 [3]; wildtype DRG neurons, lipid 200 nM 120 s, capsaicin 200 nM 30 s
  calcium flux of second vs first capsaicin stimulus (Δratio): increased calcium flux compared to the first stimulus
G2A receptor (GPR132) [4]
  calcium release (bioluminescence of aequorin): caused calcium release in a concentration-dependent manner
G2A receptor (GPR132) [5]
  activation of the G2A receptor: can activate the G2A receptor
